The values that follow come from ChEMBL document CHEMBL1135885, “Designing small, nonsugar activators of antithrombin using hydropathic interaction analyses” (J Med Chem, 2002).

Molecules are shown by their SMILES.

The nature of series [1]: The second order rate constant for uncatalysed inhibition of factor Xa by antithrombin was determined for the compound at […].
Series [2] can be described thus: The equilibrium dissociation constant was measured experimentally for the compounds interaction with antithrombin. In kind it is ADME.
A short description of series [3]: delta f max at pH 7.4. The format is ADME.
Series [4] can be described thus: The equilibrium dissociation constant antithrombin interaction was determined at pH 7.4. The format is ADME.
Series [5] in a line: Equilibrium constants and K activator was determined. The format is ADME.
A short description of series [6]: delta f max at pH 6.0. In kind it is ADME.
The nature of series [7]: Catalysed acceleration of antithrombin inhibition of factor Xa (K-uncat = 120 +/- 10 M-1.s-1).

In the case of `O=S(=O)(O)Oc1cc2c(c(OS(=O)(=O)O)c1)C[C@@H](OS(=O)(=O)O)[C@@H](c1ccc(OS(=O)(=O)O)c(OS(=O)(=O)O)c1)O2`, the Kuncat in series [1] was determined as 120 M⁻¹ s⁻¹. In addition, binding in series [2] was characterised by a dissociation constant (Kd) of 10.5 µM.

In the case of `CO[C@H]1O[C@H](COS(=O)(=O)O)[C@@H](OC2O[C@H](C(=O)O)[C@@H](OC3O[C@H](COS(=O)(=O)O)[C@@H](O)[C@H](O)[C@H]3NS(=O)(=O)O)[C@H](O)[C@H]2O)[C@H](OS(=O)(=O)O)[C@H]1NS(=O)(=O)O` (stereo partly drawn) [HEPARIN TRISACCHARIDE DEF], the Kd in series [1] was determined as 2 µM; in series [4] it was 66 µM. In addition, the “Delta Fmax” value in series [3] and in series [6] was 34% each time. The compound further gave a K act in series [5] of 45000 M⁻¹ s⁻¹. In series [7], this compound displayed a Fold_increase of 320.
